From the CheMixHub ionic liquid set

Test: xn = mol fraction of the nth substance listed

CCCC[n+]1ccn(C)c1.F[B-](F)(F)F + Cc1ccccc1
viscosity [mPa·s], 101 kPa
Details | x2 = 0.05 | x2 = 0.1 | x2 = 0.2 | x2 = 0.3 | x2 = 0.33
298.15 K | 80.4 | 74.5 | 59.9 | 47.9 | 44.8
300.65 K | 54.8 | 50.7 | 39.3 | 29.3 | 27.8
303.15 K | 41.3 | 38.1 | 29.2 | 21.6 | 20.46
305.65 K | 33.3 | 30.6 | 23.5 | 17.49 | 16.56
308.15 K | 28 | 25.7 | 19.89 | 15 | 14.18
310.65 K | 24.4 | 22.36 | 17.41 | 13.35 | 12.59
313.15 K | 21.75 | 19.9 | 15.63 | 12.18 | 11.46
315.65 K | 19.74 | 18.04 | 14.3 | 11.31 | 10.62
318.15 K | 18.18 | 16.59 | 13.26 | 10.64 | 9.97
320.65 K | 16.93 | 15.43 | 12.44 | 10.11 | 9.46
323.15 K | 15.91 | 14.49 | 11.76 | 9.68 | 9.05
325.65 K | 15.07 | 13.71 | 11.21 | 9.32 | 8.7
328.15 K | 14.36 | 13.05 | 10.74 | 9.02 | 8.41
330.65 K | 13.75 | 12.48 | 10.35 | 8.77 | 8.17
333.15 K | 13.23 | 12 | 10 | 8.55 | 7.96
335.65 K | 12.77 | 11.58 | 9.7 | 8.36 | 7.77
338.15 K | 12.37 | 11.21 | 9.44 | 8.19 | 7.61

C[C@H](N)C(=O)O + CCCCCCCCCCCC[N+](C)(C)Cc1ccccc1.[Cl-] + O
electrical conductivity [S/m], 101 kPa
Details | 293.15 K | 298.15 K | 303.15 K | 308.15 K | 313.15 K
x1 = 0.000902, x2 = 0 | 0.0002 | 0.000236 | 0.000271 | 0.00031 | 0.000356
x1 = 0.001774, x2 = 0 | 0.000272 | 0.000323 | 0.000378 | 0.000442 | 0.000511

CCCCCCCCn1cc[n+](C)c1.O=S(=O)([N-]S(=O)(=O)C(F)(F)F)C(F)(F)F + CCCCOC(C)=O
298.15 K, 100 kPa
Details | electrical conductivity [S/m] | viscosity [mPa·s]
x2 = 0 | 0.131 | 90.3
x2 = 0.2414 | 0.194 | –
x2 = 0.7054 | – | 6.46
x2 = 0.8427 | 0.361 | –

CCCC[n+]1ccn(C)c1.F[B-](F)(F)F + CC(=O)N(C)C
Details | electrical conductivity [S/m] | viscosity [mPa·s]
288.15 K, 100 kPa, x1 = 5.846e-05 | 0.003905 | –
288.15 K, 100 kPa, x1 = 0.0006944 | 0.04135 | –
293.15 K, 101 kPa, x1 = 0.7419 | – | 51.8
293.15 K, 101 kPa, x1 = 0.8488 | – | 74
293.15 K, 101 kPa, x1 = 0.9175 | – | 96
293.15 K, 101 kPa, x1 = 1 | – | 125
298.15 K, 100 kPa, x1 = 0.0002592 | 0.01885 | –
298.15 K, 101 kPa, x1 = 0.7419 | – | 44.6
298.15 K, 101 kPa, x1 = 0.8488 | – | 63.1
298.15 K, 101 kPa, x1 = 0.9175 | – | 81
298.15 K, 101 kPa, x1 = 1 | – | 105
303.15 K, 101 kPa, x1 = 0.7419 | – | 36.7
303.15 K, 101 kPa, x1 = 0.8488 | – | 52.7
303.15 K, 101 kPa, x1 = 0.9175 | – | 67
303.15 K, 101 kPa, x1 = 1 | – | 88
308.15 K, 100 kPa, x1 = 5.846e-05 | 0.005095 | –
308.15 K, 100 kPa, x1 = 0.0008703 | 0.06575 | –
308.15 K, 100 kPa, x1 = 0.001047 | 0.07765 | –
308.15 K, 101 kPa, x1 = 0.7419 | – | 29.6
308.15 K, 101 kPa, x1 = 0.8488 | – | 43.4
308.15 K, 101 kPa, x1 = 0.9175 | – | 54.9
308.15 K, 101 kPa, x1 = 1 | – | 72
313.15 K, 101 kPa, x1 = 0.7419 | – | 22.6
313.15 K, 101 kPa, x1 = 0.8488 | – | 33.5
313.15 K, 101 kPa, x1 = 0.9175 | – | 42.9
313.15 K, 101 kPa, x1 = 1 | – | 57.7
313.15 K, 101 kPa, x2 = 0.5002 | – | 9.57
313.15 K, 101 kPa, x2 = 0.8999 | – | 1.434
318.15 K, 101 kPa, x1 = 0.7419 | – | 16.2
318.15 K, 101 kPa, x1 = 0.8488 | – | 24.3
318.15 K, 101 kPa, x1 = 0.9175 | – | 31.8
318.15 K, 101 kPa, x1 = 1 | – | 44
323.15 K, 101 kPa, x1 = 0.7419 | – | 9.8
323.15 K, 101 kPa, x1 = 0.8488 | – | 16.2
323.15 K, 101 kPa, x1 = 0.9175 | – | 22.3
323.15 K, 101 kPa, x1 = 1 | – | 31.6
323.15 K, 101 kPa, x2 = 0.5998 | – | 5.02
323.15 K, 101 kPa, x2 = 0.6996 | – | 3.3
323.15 K, 101 kPa, x2 = 0.8999 | – | 1.253
333.15 K, 101 kPa, x2 = 0.8002 | – | 1.77

CCCC[n+]1ccn(C)c1.F[B-](F)(F)F + NCCO + O
viscosity [mPa·s], 101 kPa
Details | 293.15 K | 298.15 K | 303.15 K | 308.15 K | 313.15 K | 318.15 K | 323.15 K | 328.15 K | 333.15 K
x1 = 0.0337, x2 = 0.2024 | 7 | 5.5 | 4.5 | 3.8 | – | – | – | – | –
x1 = 0.0792, x2 = 0.1188 | 6.1 | 4.7 | 4 | 3.4 | – | – | – | – | –
x1 = 0.0977, x2 = 0.2442 | – | – | 7.3 | 6 | 5.1 | 4.3 | 3.7 | – | –
x1 = 0.1701, x2 = 0.3402 | – | – | – | 9 | 7.6 | 6.5 | 5.5 | 4.7 | 4.1

CC1COC(=O)O1 (stereo not drawn) + CCCC[n+]1ccccc1.N#C[N-]C#N
101 kPa, x2 = 0
Details | viscosity [mPa·s]
318.15 K | 1.724
333.15 K | 1.366

COCC[n+]1ccn(C)c1.O=S(=O)([N-]S(=O)(=O)C(F)(F)F)C(F)(F)F + O
101 kPa, x1 = 0.838
Details | electrical conductivity [S/m] | viscosity [mPa·s]
283 K | – | 66.6
298.15 K | 0.58 | –
